Experimental data published in US11357786B2, “Synthetic disugar hydrocarbons as natural analogs to control microbial behaviors” (Syracuse University, priority 2014, dated 2022).

Assays:
Assay type in all cases: cell-based, Pseudomonas aeruginosa
[1] = system: nonswarming P. aeruginosa mutant rhlA; assay: Swarming motility of nonswarming rhlA mutant on soft agar (reactivation / agonist assay); conditions: for Swarming motility of rhlA mutant: 85 μM in soft agar (0.5%); for Reactivation of swarming motility of rhlA mutant: concentration not given; for Concentration of activity reversal for swarming promotion of rhlA mutant (transition concentration): soft agar
Excerpt: Using nonswarming mutant to screen for swarming agonists and wild type P. aeruginosa for swarming antagonists. The transposon mutant, rhlA (genotype, rhlA-E08:ISphoA/hah)39 of P. aeruginosa (PAO1), that impairs the gene that is responsible for synthesizing rhamnolipids is completely incapable of a swarming motility. […] Based on this inference, a rhlA mutant was used in a swarming experiment to screen the saccharide-hydrocarbons for agonists that can reactivate the swarming motility of rhlA.
(§1) Swarm agar plates were based on M8 medium supplemented with 0.2% glucose, 0.5% casamino acid, 1 mM MgSO4 and […]. 17 For each set of experiment all the swarm plates were poured from same batch of agar and allowed to dry for 1 h before inoculation of bacteria. Bacterial culture (3 μl) (wild type PAO1 or rhlA mutant) with OD600 between […] was inoculated on the solidified agar plates. Swarm agar plates were incubated at 37° C. for 12 h and then incubated for additional 12 h at room temp. Chronological images of swarm plates were taken using a camera. To measure swarming area, sizes of the petridish in all swarming images were adjusted to a pre-assigned diameter and images were printed on copying paper (Xerox-business 4200). Weight of a 1 cm^2 copy paper square was roughly ˜8.0 mg. swarming images on the copy paper were cut and weighed, the swarm area was calculated by dividing the weight of image by weight of 1 cm^2 square (8 mg).
(§2) Swarm agar plates were made using M8 medium supplemented with 0.2% glucose, 0.5% casamino acid, 1 mM MgSO4 and solidified with 0.5% Bacto agar. 24 Bacterial culture with OD600 between 0.4 to 0.6 was inoculated as 3 μl aliquots. Swarm agar plates were incubated at 37° C. for 12 h and then incubated for additional 12 h at rt. For each set of experiment all the swarm plates were poured from same batch of agar and allowed to dry for 1 h before inoculation of bacteria.

wild type PAO1 = assay: Swarming motility of wild type PAO1 on soft agar (antagonist assay); conditions: for Swarming motility of wild type PAO1: 85 μM in soft agar; for Effect on PAO1 swarming: concentration not given; for Concentration of activity reversal for swarming inhibition of PAO1 (transition concentration): soft agar
Procedure: In contrast, the wild type P. aeruginosa produces the rhamnolipids and is capable of swarming on soft agar gel (˜0.5% agar). […] We note that saccharide hydrocarbons may also promote the swarming motility, but such promotions are less unambiguous than the inhibition for wild type PAO1. Such promotion will be unambiguous in the agonist assay using the nonswarming mutant rhlA.
as §1, §2

PAO1 biofilm = assay: Crystal violet based static biofilm inhibition assay, DSHs in LB media (Examples 2 and 4); conditions: for Inhibition of PAO1 biofilm formation (surface attached): 160 μM, 24 h, LB media, 160 µM; for Anti-biofilm activity (biofilm inhibition): concentration not given
Procedure: The ability of DSHs was tested to inhibit Pseudomonas aeruginosa adhesion, biofilm and to disperse pre-formed biofilm. To quantify the amount of PAO1/EGFP attached on the surface of micro titer plates with or without the synthesized DSHs, fluorescence emitted by green fluorescent proteins (GFP) was quantified (see supporting info for details). Crystal violet (CV) based static biofilm assay (see supporting info) was used to screen the anti-biofilm potencies of all synthesized agents. Both surface attached (SA) (FIG. 17) and total (SA+air-liquid interface) biofilm of P. aeruginosa was quantified. […] CV assays were also used to quantify the amount of P. aeruginosa biofilm remaining after dispersion experiments (FIG. 19). Initially, all agents were screen for anti-biofilm activities (both inhibition and dispersion) at 160 μM. […] All reported biofilm inhibition results are an average of 4 identical wells.
The effect that DSHs have on the adhesion of PAO1-EGFP on polystyrene surface (microtiter plate) was also examined. PAO1-EGFP is a P. aeruginosa strain that constitutively expresses green fluorescent protein. In the adhesion assays, PAO1-EGFP was grown in microtiter plate for 24-hours in LB-media with (160 μM) or without DSHs. After 24-hours, the fluorescent signal obtained from surface adhered PAO1-EGFP was measured. Percent reduction in fluorescence was calculated by comparing fluorescent signal from PAO1-EGFP grown in LB-media with the signal from wells that had DSHs (FIG. 29A). To study the effect of DSHs on biofilm formation, Pseudomonas aeruginosa (PAO1) was grown in LB-media with (160 μM) or without DSHs at 37° C. under static conditions within wells of microtiter plates. After 24 hours, the surface attached biofilms adhering to the bottom of the wells were stained with crystal-violet dye and the biofilm was quantified by measuring absorbance at 600 nm (OD600). […] Similar to inhibition, the surface attached biofilm after dispersion with DSHs was quantified with crystal-violet staining and absorbance measurement at 600 nm, except that for dispersion, biofilm was first grown for 1 day in just LB-media without any DSHs after which DSHs were added and plates were incubated for additional 24 hours followed by quantification (FIG. 29B).
Crystal violet (CV) based-biofilm inhibition assay. Inhibitory effect of all synthesized disaccharide hydrocarbons on biofilm formation of Pseudomonas aeruginosa (wild type PAO1) was determined by static biofilm inhibition assay using crystal violet staining. Overnight culture of PAO1 were sub cultured in LB media to OD600 of 0.01 and further the OD600 was allowed to reach ˜0.1. The bacterial sub-culture (200 μL) was then added into the wells of a microtiter plate. Predetermined concentrations of DSHs were added to respective wells containing sub culture by pipetting out fixed volume of sterile aqueous stock solutions (except DβL (7), SPOT, (15) and 2-ODαC (17), which were introduced as stocks prepared in H2O […] and EtOH (90:10) solutions). The microtiter plates were then wrapped in GLAD Press n′ Seal® (saran wrap) and further incubated under stationary conditions for 24 h at 37° C. After 24 h incubation, the culture media was discarded by pipetting carefully (without disrupting biofilm), the plate was then washed once with sterile water (200 μL) and allowed to dry at 37° C. for ˜30 mins. Microtiter plates were then stained with 0.1% aqueous solution of crystal violet (CV) (200 μL) at rt for ˜30 mins. Following this, the CV stain was removed and plate was again washed with sterile water (200 μL). Resultant CV stain in the well was then solubilized by adding 100 μL of 30% AcOH solution (in water) and mixing gently by pipetting.

Question: With `CCCCCCCCCCCCO[C@H]1O[C@H](CO)[C@@H](O[C@@H]2O[C@H](CO)[C@@H](O)[C@H](O)[C@H]2O)[C@H](O)[C@H]1O` [DαC (6), dodecyl-α-cellobioside] as the compound, how does the “Swarming motility of rhlA mutant” value ([1]; 24 h) read?
Answer: no apparent reactivation of rhlA swarming

Question: What about the “Swarming motility of wild type PAO1” value (wild type PAO1; 24 h) of the same compound?
Answer: causing significant amount of tendril formation

Question: What about the “Effect on PAO1 swarming” value (wild type PAO1) of the same compound?
Answer: induced tendril formation in the swarming pattern of PAO1

Question: How did the “Swarming motility of rhlA mutant” value ([1]; 24 h) turn out when `CCCCCCCCCCO[C@@H]1O[C@H](CO)[C@@H](O[C@H]2O[C@H](CO)[C@@H](O)[C@H](O)[C@H]2O)[C@H](O)[C@H]1O` [DeβM, decyl β-matoside] was run?
Answer: did not exhibit any significant activation of swarming

Question: `CCCCCCCCCCCO[C@@H]1O[C@H](CO)[C@@H](O[C@H]2O[C@H](CO)[C@@H](O)[C@H](O)[C@H]2O)[C@H](O)[C@H]1O` [UβM, undecyl β-maltoside] was tested. Which “Swarming motility of rhlA mutant” value ([1]; 24 h) did it give?
Answer: swarming motility with without well-defined tendrils

Question: How did the “Swarming motility of rhlA mutant” value ([1]; 24 h) turn out when `CCCCCCCCC(CO[C@@H]1O[C@H](CO)[C@@H](O[C@H]2O[C@H](CO)[C@@H](O)[C@H](O)[C@H]2O)[C@H](O)[C@H]1O)Cc1ccc(C(C)(C)C)cc1` (stereo partly drawn) [4-tBuBDeβM, 4-tertiary butyl benzyl decyl β-maltoside] was run?
Answer: swarming motility with without well-defined tendrils

Question: With `C=CCCCCCCCCCO[C@@H]1O[C@H](CO)[C@@H](O[C@@H]2O[C@H](CO)[C@@H](O)[C@H](O)[C@H]2O)[C@H](O)[C@H]1O` [UDβC (10), undecylenyl-β-cellobioside] as the compound, how does the “Inhibition of PAO1 biofilm formation (surface attached)” value (shortened to “Inhibition of PAO1 biofilm formation”) (PAO1 biofilm; listed as 10: UDβC) read?
Answer: lesser potency than DSH with completely saturated aliphatic chain

Question: What about the “Anti-biofilm activity (biofilm inhibition)” value (PAO1 biofilm) of the same compound?
Answer: did not show anti-biofilm activities

Question: And the “Swarming motility of rhlA mutant” value ([1]; 24 h)?
Answer: no significant effect on the swarming motility

Question: What about the “Swarming motility of wild type PAO1” value (wild type PAO1; 24 h) of the same compound?
Answer: no significant effect on the swarming motility

Question: And the “Effect on PAO1 swarming” value (wild type PAO1)?
Answer: no apparent effect on PAO1 swarming

Question: For `CCCCCCCCCCC(CO[C@@H]1O[C@H](CO)[C@@H](O[C@H]2O[C@H](CO)[C@@H](O)[C@H](O)[C@H]2O)[C@H](O)[C@H]1O)Cc1ccc(C)cc1` (stereo partly drawn) [4-MBDβM, 4-methyl benzyl dodecyl β-maltoside], which “Swarming motility of rhlA mutant” value ([1]; 24 h) is on record?
Answer: long, straight and well-defined tendrils

Question: For `CCCCCCCCCCC(CO[C@@H]1O[C@H](CO)[C@@H](O[C@H]2O[C@H](CO)[C@@H](O)[C@H](O)[C@H]2O)[C@H](O)[C@H]1O)Cc1cc(C)cc(C)c1` (stereo partly drawn) [3,5-DMBDβM, 3,5-dimethyl benzyl dodecyl β-maltoside], which “Swarming motility of rhlA mutant” value ([1]; 24 h) is on record?
Answer: long, straight and well-defined tendrils

Question: Which “Inhibition of PAO1 biofilm formation” value (PAO1 biofilm; listed as 1: DβM) does the source give for `CCCCCCCCCCCCO[C@@H]1O[C@H](CO)[C@@H](O[C@H]2O[C@H](CO)[C@@H](O)[C@H](O)[C@H]2O)[C@H](O)[C@H]1O` [DβM (1), dodecyl-β-maltoside] here?
Answer: 50%

Question: And the “Swarming motility of rhlA mutant” value ([1]; 24 h)?
Answer: strong reactivation of the swarming motility in rhlA mutant

Question: What about the “Swarming motility of rhlA mutant” value ([1]; 24 h, listed as DβM) of the same compound?
Answer: long, straight and well-defined tendrils

Question: And the “Swarming reactivation of rhlA mutant” value ([1]; 110 μM in soft agar, 24 h)?
Answer: fully restored the swarming of rhlA

Question: What about the “Swarming motility of wild type PAO1” value (wild type PAO1; 24 h) of the same compound?
Answer: causing significant amount of tendril formation

Question: And the “Swarming of wild type PAO1” value (wild type PAO1; 110 μM in soft agar, 24 h)?
Answer: did not significantly affect the swarm pattern

Question: What about the “Effect on PAO1 swarming” value (wild type PAO1) of the same compound?
Answer: induced tendril formation in the swarming pattern of PAO1

Question: With `CCCCCCCCCCCCCO[C@@H]1O[C@H](CO)[C@@H](O[C@@H]2O[C@H](CO)[C@@H](O)[C@H](O)[C@H]2O)[C@H](O)[C@H]1O` [TβC (5), tridecyl-β-cellobioside] as the compound, how does the “Anti-biofilm activity (biofilm inhibition)” value (PAO1 biofilm) read?
Answer: did not show significant inhibition of PAO1 biofilm

Question: What about the “Concentration of first inhibition of rhlA swarming” value [1] of the same compound?
Answer: around 50 μM

Question: And the “Swarming motility of rhlA mutant” value ([1]; 24 h)?
Answer: no apparent reactivation of rhlA swarming

Question: And the “Concentration of another activation of rhlA swarming” value ([1]; after first inhibition)?
Answer: about 160 μM

Question: And the “Reactivation of swarming motility of rhlA mutant” value [1]?
Answer: activated the swarming motility of rhlA mutant

Question: What about the “Concentration of activity reversal for swarming promotion of rhlA mutant (transition concentration)” value [1] of the same compound?
Answer: ~40 µM

Question: What about the “Concentration of activity reversal for swarming promotion of rhlA mutant (transition concentration)” value ([1]; listed as 5) of the same compound?
Answer: 40 µM

Question: What about the “Concentration at which tendrils were induced in PAO1” value (wild type PAO1) of the same compound?
Answer: 30 µM

Question: What about the “Swarming motility of wild type PAO1” value (wild type PAO1; 24 h) of the same compound?
Answer: causing significant amount of tendril formation

Question: And the “Effect on PAO1 swarming” value (wild type PAO1)?
Answer: induced tendril formation in the swarming pattern of PAO1

Question: What about the “Concentration of activity reversal for swarming inhibition of PAO1 (transition concentration)” value (wild type PAO1) of the same compound?
Answer: ~20 to 30 µM

Question: How did the “Inhibition of PAO1 biofilm formation” value (PAO1 biofilm; listed as 8: DβG) turn out when `CCCCCCCCCCCCO[C@@H]1O[C@H](CO)[C@@H](O)[C@H](O)[C@H]1O` [DβG (8), dodecyl-β-glucoside] was run?
Answer: poor anti-biofilm activity

Question: And the “Anti-biofilm activity (biofilm inhibition)” value (PAO1 biofilm)?
Answer: weak anti-biofilm activity

Question: And the “Anti-biofilm activity (biofilm inhibition)” value (PAO1 biofilm; listed as DOG (8))?
Answer: did not show significant inhibition of PAO1 biofilm

Question: What about the “Swarming motility of rhlA mutant” value ([1]; 24 h) of the same compound?
Answer: no apparent effect on rhlA

Question: And the “Reactivation of swarming motility of rhlA mutant” value [1]?
Answer: activated the swarming motility of rhlA mutant

Question: What about the “Concentration of activity reversal for swarming promotion of rhlA mutant (transition concentration)” value [1] of the same compound?
Answer: ~35 to 50 µM

Question: And the “Concentration of activity reversal for swarming promotion of rhlA mutant (transition concentration)” value ([1]; listed as 8)?
Answer: 35 µM

Question: And the “Swarming motility of wild type PAO1” value (wild type PAO1; 24 h)?
Answer: inhibited the swarming motility of wild type PAO1

Question: And the “Concentration of activity reversal for swarming inhibition of PAO1 (transition concentration)” value (wild type PAO1)?
Answer: ~50 to 60 µM

Question: What about the “Concentration of activity reversal for swarming inhibition of PAO1 (transition concentration)” value (wild type PAO1; listed as 8) of the same compound?
Answer: 35 to 50 µM

Question: For adamantane dodecyl β-maltoside [ADβM], which “Swarming motility of rhlA mutant” value ([1]; 24 h) is on record?
Answer: long, straight and well-defined tendrils
